One assay deals with mice on the Western diet. The protocol:
77 DIAMOND™ mice were placed on either normal chow (NDNW) or Western Diet (WDSW) and aged up to 8, 20, 28, 36, and 40 weeks, then dosed with 4 kDa FITC-dextran at 600 mg/kg body weight by gavage. Four hours after the dosing, at least 20 μL of serum was taken by tail vein nick. A competition ELISA, which measures small dextran polymers (conjugated or unconjugated), was used to quantify serum dextran concentration.
The subsequent experiment evaluated the effects of orally administered larazotide acetate to mice on the Western diet. The study design is depicted in FIG. 2. Specifically, 8 groups of mice were placed on WDSW diets for 16 weeks and administered larazotide (dosed in drinking water or oral gavage), pioglitazone comparator, or vehicle from 8-16 weeks. Improvement in leaky gut was assessed by dosing the mice with unconjugated dextran at 600 mg/kg via oral gavage at baseline and end of study, serum was collected 4 hours later, and serum dextran concentrations were measured.

The next assay relates to celiac disease symptoms. The note with it: clinical trials, cited from earlier work.
In a further assay the test system is tight junction. Briefly: Activity as tight junction regulators.

Where two headings read alike, the source gives them in different places. Ends that are not written are not given here.

Regarding GGVLVQPG [larazotide], the gut integrity entry in the assay with mice on the Western diet (mice on Western diet, larazotide from 8-16 weeks, drinking water or oral gavage, FIG. 3) is “improved gut integrity”. Also, the “reduction of celiac disease symptoms” value in the assay with celiac disease symptoms (higher doses (e.g., 1 mg and 2 mg doses)) was “attenuation of activity, or no activity at all”; in the assay on celiac disease symptoms (lower doses (e.g., 0.5 mg dose)), “benefit at reducing celiac disease symptoms”. For the same substance, in the assay on tight junction (full length larazotide mixed with fragments GVLVQPG and VLVQPG), the “activity as tight junction regulator when mixed with fragments” value is given as “activity is completely abolished”.

Take “GVLVQPG (Synthetic polymer) [larazotide-derived fragment missing N-terminal glycine residue]”: the “activity as tight junction regulators” value in the assay with tight junction is “inactive”.

For “VLVQPG (Synthetic polymer) [larazotide-derived fragment missing N-terminal glycine residues]”, the “activity as tight junction regulators” value with tight junction was “inactive”.

On to larazotide acetate, for which the serum dextran concentrations entry with mice on the Western diet (mice on Western diets, various doses, serum 4 hours after dextran 600 mg/kg gavage) was “successful in lowering the serum dextran concentrations”.

The values above are taken from patent US12337024B2, “Larazotide formulations” (Interlude Biopharma Co., priority 2019, dated 2025).
